The source of these data is US9593305B2, “Differentiation of pluripotent stem cells” (Janssen Biotech, Inc., priority 2008, dated 2017).

This assay has as its system H1 human embryonic stem cells. Description: Analogue screening in combination with only GDF-8, SOX17 (Example 21, Tables 18 and 19). The note with it: compound in combination with GDF8; for Cell Number: Average Total Cell Number / Sox17 Expression: Average Total Intensity: four assay plates; for Cell Number: % of positive control / Sox17 Expression: % of positive control: relative to Activin A/Wnt3a of the same plate. Format: cell-based. Details: Sox17 Expression: % of positive control / Cell Number: % of positive control: tested at 2.5 µM. As to the method: Briefly, clusters of H1 human embryonic stem cells were grown on reduced growth factor Matrigel™ (Invitrogen; Cat #356231)-coated tissue culture plastic. Cells were passaged using collagenase (Invitrogen; Cat #17104-019) treatment and gentle scraping, washed to remove residual enzyme, and plated with even dispersal at a ratio of 1:1 (surface area) on reduced growth factor […]™ (BD Biosciences; Cat #356231)-coated 96-well black plates (Packard ViewPlates; PerkinElmer; Cat #6005182) using volumes of 100 μl/well. Cells were allowed to attach and then recover log phase growth over a 1 to 3 day time period, feeding daily with MEF conditioned medium supplemented with 8 ng/ml bFGF (R&D Systems; Cat #233-FB). Plates were maintained at 37° C., 5% CO2 in a humidified box throughout the duration of assay.
Screening was conducted using a library of the analogue compounds. Compounds from this library were made available as 5 mM stocks in 96-well plate format, solubilized in 100% DMSO (Sigma; Cat #D2650) and stored at −80° C. The library compounds were further diluted to an intermediate concentration of 0.2 mM in 50 mM HEPES (Invitrogen; Cat #15630-080), 20% DMSO and stored at 4° C. Test conditions were performed in triplicate, feeding on alternating days over a four-day assay period. Assays were initiated by aspirating culture medium from each well followed by three washes in PBS (Invitrogen; Cat #14190) to remove residual growth factors. On the first day of assay, test volumes of 200 μl per well were added to each well using DMEM:F12 base medium (Invitrogen; Cat #11330-032) supplemented with 0.5% FCS (HyClone; Cat #SH30070.03) and 200 ng/ml GDF-8 (R&D Systems, Cat #788-G8) plus 2.5 μM compound. On the third day of assay, test volumes of 100 μl per well were added to each well using DMEM:F12 base medium supplemented with 2% FCS plus 200 ng/ml GDF-8 (R&D Systems, Cat #788-G8). Positive control samples contained the same base medium supplemented with FCS and 1000 ng/ml recombinant human activin A (PeproTech; Cat #120-14) throughout the four-day assay along with Wnt3a (20 ng/ml) on days 1 and 2. Negative control samples contained DMEM:F12 base medium supplemented with FCS, adding Wnt3a on days 1 and 2 but omitting treatment with activin A.
At the conclusion of four-days of culture, assay plates were washed twice with PBS (Invitrogen; Cat #14190), fixed with 4% paraformaldehyde (Alexis Biochemical; Cat #ALX-350-011) at room temperature for 20 minutes, then washed three times with PBS and permeabilized with 0.5% Triton X-100 (Sigma; Cat #T8760-2) for 20 minutes at room temperature. Cells were washed again three times with PBS and blocked with 4% chicken serum (Invitrogen; Cat #16110082) in PBS for 30 minutes at room temperature. Primary antibody (goat anti-human SOX17; R&D Systems; Cat #AF1924) was diluted 1:100 in 4% chicken serum and added to each well for one hour at room temperature. Alexa Fluor 488 conjugated secondary antibody (chicken anti-goat IgG; Molecular Probes; Cat #AZ1467) was diluted 1:200 in PBS and added to each sample well after washing three times with PBS. To counterstain nuclei, 4 μg/ml Hoechst 33342 (Invitrogen; Cat #H3570) was added for ten minutes at room temperature. Plates were washed once with PBS and left in 100 μl/well PBS for imaging.
Imaging was performed using an IN Cell Analyzer 1000 (GE Healthcare) utilizing the 51008bs dichroic for cells stained with Hoechst 33342 and Alexa Fluor 488. Exposure times were optimized from positive control wells and from untreated negative control wells stained with secondary antibody alone. Images from 15 fields per well were acquired to compensate for any cell loss during the bioassay and subsequent staining procedures. Measurements for total cell number and total SOX17 intensity were obtained from each well using IN Cell Developer Toolbox 1.7 (GE Healthcare) software. […]

For `O=C(O)CCc1cccc(Nc2ncnc(-c3cccnc3)n2)c1` [Compound 1, 3-{3-[(4-Pyridin-3-yl-1,3,5-triazin-2-yl)amino]phenyl}propanoic acid], the “Cell Number: Average Total Cell Number” value is 3213, the “Sox17 Expression: Average Total Intensity” value is recorded as 6.48E+06, the “Cell Number: % of positive control” value was found to be 21.0% and the “Sox17 Expression: % of positive control” value was found to be 1.9%.

In the case of `OCCc1cccc(Nc2ncnc(-c3cccnc3)n2)c1` [Compound 2, 2-{3-[(4-Pyridin-3-yl-1,3,5-triazin-2-yl)amino]phenyl}ethanol], the “Cell Number: Average Total Cell Number” value is recorded as 4538, the “Sox17 Expression: Average Total Intensity” value is on record as 2.95E+07, the “Cell Number: % of positive control” value worked out at 30.2% and the “Sox17 Expression: % of positive control” value is recorded as 8.6%.

With `CC(C)(C)OC(=O)NCCCCc1cc(-c2ncnc(Nc3cccc(CO)c3)n2)ccn1` [Compound 4, 1,1-Dimethylethyl {4-[4-(4-{[3-(hydroxymethyl)phenyl]amino}-1,3,5-triazin-2-yl)pyridin-2-yl]butyl}carbamate], the “Cell Number: Average Total Cell Number” value worked out at 3163, the “Sox17 Expression: Average Total Intensity” value was determined as 1.58E+07, the “Cell Number: % of positive control” value amounted to 20.7% and the “Sox17 Expression: % of positive control” value is listed as 4.7%.

As for `COc1ccc(-c2ccnc(Nc3cc(Br)cc(CO)c3)n2)cc1CN(C)CCCNC(=O)OC(C)(C)C` [Compound 5, 1,1-Dimethylethyl {3-[{[5-(2-{[3-bromo-5-(hydroxymethyl)phenyl]amino}pyrimidin-4-yl)-2-(methyloxy)phenyl]methyl}(methyl)amino]propyl}carbamate], the “Cell Number: Average Total Cell Number” value was 3137, the “Sox17 Expression: Average Total Intensity” value amounted to 1.30E+07, the “Cell Number: % of positive control” value was 20.5% and the “Sox17 Expression: % of positive control” value was 3.9%.

Turning to `CN1CCC(C(=O)NCc2sc(Nc3cccc(C(F)(F)F)c3)nc2-c2cccnc2)CC1` [Compound 50, 1-Methyl-N-[(4-pyridin-3-yl-2-{[3-(trifluoromethyl)phenyl]amino}-1,3-thiazol-5-yl)methyl]piperidine-4-carboxamide], the “Cell Number: Average Total Cell Number” value came to 2666, the “Sox17 Expression: Average Total Intensity” value is 1.48E+07, the “Cell Number: % of positive control” value worked out at 19.1% and the “Sox17 Expression: % of positive control” value amounted to 4.8%.

As to `CC(C)(C)OC(=O)NCCc1ccc(Nc2nnc(-c3cccc(CCCO)c3)[nH]2)cc1` [Compound 51, 1,1-Dimethylethyl {2-[4-({5-[3-(3-hydroxypropyl)phenyl]-4H-1,2,4-triazol-3-yl}amino)phenyl]ethyl}carbamate], the “Cell Number: Average Total Cell Number” value came to 4289, the “Sox17 Expression: Average Total Intensity” value worked out at 1.70E+07, the “Cell Number: % of positive control” value is 28.6% and the “Sox17 Expression: % of positive control” value is given as 4.9%.

Turning to `COc1ccc(CCCO)cc1-c1cnc(Nc2cccc(CNC(=O)OC(C)(C)C)c2)o1` [Compound 52, 1,1-Dimethylethyl {[3-({5-[5-(3-hydroxypropyl)-2-(methyloxy)phenyl]-1,3-oxazol-2-yl}amino)phenyl]methyl}carbamate], the “Cell Number: Average Total Cell Number” value was determined as 4932, the “Sox17 Expression: Average Total Intensity” value is reported as 1.99E+07, the “Cell Number: % of positive control” value came out at 32.9% and the “Sox17 Expression: % of positive control” value is reported as 5.8%.

`CN1CCN(S(=O)(=O)c2ccc(Nc3cncc(-c4ccc(CN5CCC(O)CC5)s4)n3)cc2)CC1` [Compound 53, 1-({5-[6-({4-[(4-Methylpiperazin-1-yl)sulfonyl]phenyl}amino)pyrazin-2-yl]thiophen-2-yl}methyl)piperidin-4-ol]: the “Cell Number: Average Total Cell Number” value stood at 2783, the “Sox17 Expression: Average Total Intensity” value turned out to be 6.36E+06, the “Cell Number: % of positive control” value worked out at 18.2% and the “Sox17 Expression: % of positive control” value came to 1.9%.
